Data from patent US10525032B2, “Antimicrobial compositions comprising mupirocin and neomycin” (University of Rochester, priority 2015, dated 2020).
Like-named read-outs stand apart in the source and are kept apart here.

Key:
[1] = system: S. aureus strain UAMS-1; experiment: Minimum inhibitory concentration (MIC) testing, CLSI microtiter, with or without mupirocin; assay type: cell-based, Staphylococcus aureus; conditions: for MIC: Staphylococcus aureus
Procedure: Screen of Selleck Library. Members of the Selleck Library of Food and Drug […] approved drugs (Selleck Chemicals, Houston Tex., L1300) were screened for agents that potentiate the antimicrobial activity of mupirocin toward S. aureus strain UAMS-1. To do so, 1×10^5 colony forming units of UAMS-1 were added to individual wells of a 96-well microtiter plate, mixed with 0.03 μg/mL mupirocin (0.5× minimum inhibitory concentration) and 50 μM of test agent in Mueller Hinton broth (MHB; 100 μL total well volume). Microtiter plates were incubated at 37° C. for 16 hr, and individual wells were inspected for growth. Wells lacking growth were considered to represent agents that either potentiated the antimicrobial properties of mupirocin or mupirocin-independent antimicrobial microbial properties.
(§1) Antimicrobial Susceptibility Testing. Minimum inhibitory concentration (MIC) was tested in accordance with the Clinical and Laboratory Standards Institute (CLSI) guidelines. Briefly, 1×10^5 CFU of the indicated S. aureus strain was added to individual wells of a microtiter plate containing 88 μL of MHB media and two-fold increasing concentrations of mupirocin or test agent (0-128 μg ml^−1). Plates were incubated for 16 hr at 37° C. and wells were visually inspected for growth. The lowest concentration of mupirocin or test agent that inhibited S. aureus growth was considered to be the minimum inhibitory concentration. Fractional inhibitory concentration index (FIC) testing was performed to measure interactions between mupirocin and neomycin, as previously described. See Odds F C. 2003. Synergy, antagonism, and what the chequerboard puts between them. The Journal of antimicrobial chemotherapy 52:1. Briefly, in checkerboard format each row of the plate contained increasing concentrations of mupirocin (2-fold increments; 0-0.5 μg/mL), whereas each column contained increasing concentrations of neomycin (2-fold increments; 0-32 μg/mL). To every well (100 μl total volume) MHB containing 3×10^5 CFU of S. aureus strain UAMS-1 was added and the plate was incubated at 37° C. overnight (16-20 hr). The FIC was determined using the following formula: (MIC of Drug A in Combination/MIC of Drug A Alone)+(MIC of Drug B in Combination/MIC of Drug B Alone)=FIC. A synergistic interaction was defined as an FIC value≤0.5, additive as FIC value 0.5-1.0, no interaction as an FIC of 1-4, or an antagonistic interaction FIC>4.
Members of the Selleck library of 853 FDA approved drugs were screened for agents that potentiate the activity of mupirocin. […] Conversely, the antimicrobial activity of Nitazoxanide, Nitrofurazone, and Neomycin sulfate, increased in the presence of mupirocin.

[2] = system: S. aureus strain UAMS-1; experiment: Fractional inhibitory concentration index (FIC) checkerboard testing with mupirocin; assay type: cell-based, Staphylococcus aureus; conditions: combined with mupirocin, additive = 0.5-1.0
Procedure: as §1

[3] = system: S. aureus strain UAMS-1; conditions: previous studies; cited from earlier work
[4] = system: S. aureus strain UAMS-1; assay type: in vivo, Staphylococcus aureus; conditions: Balb-c mice
Procedure: Nasal Colonization and Treatment of Mice. Ointments were evaluated for in vivo antimicrobial activity using a S. aureus nasal colonization model as previously described, but with modifications. See Kiser K B, Cantey-Kiser J M, Lee J C. 1999. Development and characterization of a Staphylococcus aureus nasal colonization model in mice. Infect Immun 67:5001-5006. The nostrils of awake mice were inoculated with 1×10^7 of the indicated S. aureus strain by pipetting 10 μL of culture directly into the nostrils and confirmed by the visualization of air bubbles appearing as the mouse breathed in and out. Mice nostrils were then treated with 10 μL PEG ointment (brought to 55° C. in a heat block to liquefy) containing either vehicle alone or the indicated antibiotic 45 min post inoculation and treatments were repeated every 8 hr for three days. […]
A murine model of S. aureus nasal colonization was used to compare the antimicrobial efficacy of mupirocin, neomycin, and the two agents when applied in combination. To do so, the nasal passage of Balb-c mice were inoculated with ˜1×10^7 colony forming units of S. aureus then treated three times a day for a total of three days, at which point the bacterial burden was measured and the antibiotic susceptibility of ten isolates from each animal was measured by MIC testing.

[5] = system: S. aureus strain UAMS-1; experiment: Murine dermal wound model of infection; assay type: in vivo, Staphylococcus aureus
Procedure: Dermal Wound Model of Infection and Treatment of Mice. The effects of ointment compilations were evaluated for in vivo antimicrobial activity using a S. aureus dermal wound model, but with modifications. See Guthrie K M, Agarwal A, Tackes D S, Johnson K W, Abbott N L, Murphy C J, Czuprynski C J, Kierski P R, Schurr M J, McAnulty J F. 2012. Antibacterial efficacy of silver-impregnated polyelectrolyte multilayers immobilized on a biological dressing in a murine wound infection model. Annals of surgery 256:371-377. Mice were anesthetized by intraperitoneal injection with a mixture of 100 mg ml^−1 Ketamine (Hospira Inc., Lake Forest Ill.) and 20 mg ml^−1 Xylazine (Lloyd Laboratories, Shenandoah Iowa) in NaCl at five μ1 per 1 g body weight. Pain relief in the form of 20 μL 0.5% Sensorcaine (APP Pharmaceuticals, Schaumburg, Ill.) was administered prior to dermal wounding. […]
To do so, a dermal wound was created on the back of Balb-c mice, inoculated with either S. aureus strain UAMS-1, USA300, or BAA-1708, and then treated with test agent suspended in PEG-based ointment twice a day for a total of 3 days, at which point bacterial burden was measured.

[6] = system: strain BAA-1708; experiment: MIC testing; assay type: cell-based; conditions: Staphylococcus aureus, BAA1708; BAA-1708 (mupA), data not shown
Procedure: as §1, with “To every well (100 μl total volume) MHB containing 3×10^5 CFU of S. aureus strain UAMS-1 was added and the plate was incubated at 37° C. overnight (16-20 hr).” left out, “A synergistic interaction was defined as an FIC value≤0.5, additive as FIC value 0.5-1.0, no interaction as an FIC of 1-4, or an antagonistic interaction FIC>4.” left out

[7] = system: USA300; experiment: MIC testing; assay type: cell-based, Staphylococcus aureus; conditions: USA300, data not shown
Procedure: as §1, with “To every well (100 μl total volume) MHB containing 3×10^5 CFU of S. aureus strain UAMS-1 was added and the plate was incubated at 37° C. overnight (16-20 hr).” left out, “A synergistic interaction was defined as an FIC value≤0.5, additive as FIC value 0.5-1.0, no interaction as an FIC of 1-4, or an antagonistic interaction FIC>4.” left out

[8] = system: S. aureus RNase P; experiment: RNase P ptRNA processing assay; assay type: biochemical, Staphylococcus aureus; conditions: 250 μM, in vitro
Procedure: RNase P ptRNA Processing Assay. S. aureus RNase P activity assays were performed as previously described. See Eidem T M, Lounsbury N, Emery J F, Bulger J, Smith A, Abou-Gharbia M, Childers W, Dunman P M. 2015. Small-molecule inhibitors of Staphylococcus aureus RnpA-mediated RNA turnover and tRNA processing. Antimicrob Agents Chemother 59:2016-2028. Briefly, RNase P was first reconstituted by mixing an equimolar ratio of denatured rnpB and RnpA for 15 min at 37° C. then added (5 pmol) to 10 pmol of ptRNA^Tyr, and increasing concentrations of the indicated concentration of neomycin or the known RNase P inhibitor, RNPA2000 in a total volume of 20 μl. […] A FluorChem 5500 imaging system was used to visualize RNA products and quantified using ImageJ software (National Institutes of Health, Bethesda Md.). The percent RNase P activity was then calculated using the following equation: test compound tRNA^Tyr signal/mock tRNA^Tyr signal.
Aminoglycoside antibiotics, such has neomycin, contain a central deoxystreptamine ring decorated with amino-sugar modifications and act by binding to the major groove of the 16S rRNA to disrupt the fidelity of tRNA selection and block protein translation. […] A real-time fluorescence polarization activity assay to screen for inhibitors of bacterial ribonuclease P. Nucleic acids research 42:e159.

[9] = UAMS1, medium containing 0.25× the strain's mupirocin MIC, UAMS-1, read-out: MIC (+) Mup.
[10] = UAMS1, read-out: MIC (−) Mup., medium lacking mupirocin, UAMS-1

With `CC(=O)Oc1ccccc1C(=O)Nc1ncc([N+](=O)[O-])s1` [Nitazoxanide] the MIC [1, 9] was 8 µg/mL, the MIC [1, 10] was 16 µg/mL and the “Fractional Inhibitory Concentration Index” value [2] was 0.75.
With `NC(=O)N/N=C/c1ccc([N+](=O)[O-])o1` [Nitrofurazone] the MIC [1, 9] was 8 µg/mL, the MIC [1, 10] was 16 µg/mL and the “Fractional Inhibitory Concentration Index” value [2] was 0.75.
In the case of `CC(C)c1ccc(OCC(=O)NNC(=S)NC(=O)c2ccco2)cc1` [RNPA2000], the “FIC measures with mupirocin” value [3] is given as < 0.5, the “nasal decolonization (in words)” value [4] is given as “does not exhibit antimicrobial activity” and the “wound decolonization (in words)” value [5] is given as “does not exhibit antimicrobial activity”.
With `C/C(=C\C(=O)OCCCCCCCCC(=O)O)C[C@@H]1OC[C@H](C[C@@H]2O[C@H]2[C@@H](C)[C@H](C)O)[C@@H](O)[C@H]1O` [mupirocin] the MIC ([1]; UAMS1, UAMS-1 isolates from two 2% mupirocin treated mice with higher nasal burdens) was 0.5 µg/mL, the MIC ([1]; UAMS1, inoculating strain UAMS-1 and isolates from the other animals of the 2% mupirocin nasal treatment group) was 0.125 µg/mL and the MIC ([1]; UAMS1, read-out: mupirocin minimum inhibitory concentration (MIC), UAMS-1, as stated for the library screen) was 0.3 µg/mL. The “increase in mupirocin tolerance” value ([1]; isolates from two higher-burden mice versus inoculating strain) was 4 fold and the MIC [6] was > 256 µg/mL.
In the case of neomycin, the “MIC (+) Mup.” value ([1]; medium containing 0.25× the strain's mupirocin MIC, UAMS-1) is reported as 0.25 µg/mL, the “MIC (−) Mup.” value ([1]; medium lacking mupirocin, UAMS-1) is reported as 0.5 µg/mL and the MIC [7] is reported as 128 µg/mL. The “inhibition of RNase P-catalyzed maturation of precursor tRNA^Tyr” value [8] was “inhibit” and the “Fractional Inhibitory Concentration Index” value [2] was 0.75.
